Results: ChEMBL document CHEMBL1221220, “Transport and signaling via the amino acid binding site of the yeast Gap1 amino acid transceptor” (Nat Chem Biol, 2009)
Residue numbers refer to the chain shown, from its start. Active and inactive are the calls of the source. The calls are words filed in the database; no cut-off is given here.

Assays:
[1] = tested on: General amino-acid permease GAP1 (Saccharomyces cerevisiae), P19145 [V389C]; test: Induction of yeast Gap1 V389C mutant-mediated trehalose activation at 2 mM in presence of 10 mM MTSEA treated before compound addition
Sequence of General amino-acid permease GAP1 (Saccharomyces cerevisiae), P19145 [V389C] (P19145 whole entry V389C): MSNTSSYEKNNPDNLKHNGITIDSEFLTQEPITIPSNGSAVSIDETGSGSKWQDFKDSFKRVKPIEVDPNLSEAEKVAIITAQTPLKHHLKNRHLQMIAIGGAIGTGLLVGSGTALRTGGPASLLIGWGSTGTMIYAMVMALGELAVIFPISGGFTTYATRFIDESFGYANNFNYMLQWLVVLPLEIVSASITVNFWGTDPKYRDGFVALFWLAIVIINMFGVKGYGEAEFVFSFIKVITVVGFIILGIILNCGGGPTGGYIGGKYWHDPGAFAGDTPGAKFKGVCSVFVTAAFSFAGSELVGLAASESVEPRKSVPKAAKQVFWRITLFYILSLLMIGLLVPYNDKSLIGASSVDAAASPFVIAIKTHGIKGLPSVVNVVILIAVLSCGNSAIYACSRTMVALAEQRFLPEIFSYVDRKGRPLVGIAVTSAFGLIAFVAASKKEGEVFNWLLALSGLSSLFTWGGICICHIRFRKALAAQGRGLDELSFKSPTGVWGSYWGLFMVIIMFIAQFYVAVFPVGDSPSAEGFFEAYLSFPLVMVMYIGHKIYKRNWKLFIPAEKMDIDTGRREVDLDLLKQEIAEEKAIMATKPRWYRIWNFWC

[2] = tested on: T1, General amino-acid permease GAP1 (Saccharomyces cerevisiae), P19145 [A385C]; test: Induction of yeast Gap1 A385C mutant-mediated amino acid uptake at 2 mM in presence of 10 mM MTSEA treated before compound addition
T1 sequence (whole entry): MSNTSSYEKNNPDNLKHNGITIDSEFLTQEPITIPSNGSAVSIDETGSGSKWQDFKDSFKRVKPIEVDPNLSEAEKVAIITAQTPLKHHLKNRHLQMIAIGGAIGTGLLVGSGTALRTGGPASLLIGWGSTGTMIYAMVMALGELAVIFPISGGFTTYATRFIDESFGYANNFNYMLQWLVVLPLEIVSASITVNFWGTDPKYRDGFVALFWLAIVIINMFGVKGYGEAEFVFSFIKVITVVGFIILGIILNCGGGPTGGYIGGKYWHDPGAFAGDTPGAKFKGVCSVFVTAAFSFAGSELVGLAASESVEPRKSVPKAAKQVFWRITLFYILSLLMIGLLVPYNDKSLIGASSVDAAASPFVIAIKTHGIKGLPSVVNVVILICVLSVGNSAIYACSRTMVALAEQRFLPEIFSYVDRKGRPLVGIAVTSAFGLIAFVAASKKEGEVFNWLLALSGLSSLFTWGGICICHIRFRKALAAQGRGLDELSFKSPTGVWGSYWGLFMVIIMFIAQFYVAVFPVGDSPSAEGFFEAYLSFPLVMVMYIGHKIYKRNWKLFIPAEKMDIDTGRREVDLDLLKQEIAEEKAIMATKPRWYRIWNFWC

[3] = tested on: T2, General amino-acid permease GAP1 (Saccharomyces cerevisiae), P19145 [C397C]; test: Induction of yeast Gap1 C397C mutant-mediated […] activation at 2 mM in presence of 10 mM MTSEA treated before compound addition
T2 sequence (whole entry): T1 sequence (whole entry) with C385A

[4] = tested on: T3, General amino-acid permease GAP1 (Saccharomyces cerevisiae), P19145 [T400C]; test: Activation of yeast Gap1 T400C mutant-mediated amino acid uptake at 10 mM
T3 sequence (whole entry): T1 sequence (whole entry) with C385A, T400C

[5] = tested on: T4, General amino-acid permease GAP1 (Saccharomyces cerevisiae), P19145 [A393C]; test: Induction of yeast Gap1 A393C mutant-mediated trehalose activation at 10 mM
T4 sequence (whole entry): T1 sequence (whole entry) with C385A, A393C

[6] = tested on: Saccharomyces cerevisiae; test: Induction of yeast Gap1 L404 mutant-mediated trehalose activation at 2 mM in presence of 10 mM MTSEA treated before compound addition

inhibition [1]: inactive
Activity [2]: Active
inhibition [3]: Active
Activity [4]: inactive
Activity [5]: inactive
inhibition [6]: Active
SMILES: NC(=O)NCCC[C@H](N)C(=O)O
